Our source for the EC50 and inhibition values is patent US10604514B2, “6-(5-membered heteroaryl)isoquinolin-3-yl carboxamides and preparation and use thereof” (Samumed, LLC, priority 2017, dated 2020).

Each structure is given as a SMILES string. Read-outs that look alike come from different tables or passages of the source. A value given as a limit tells only on which side of the number the result lay.

In one test the target is GSK3β kinase (Homo sapiens (Human), UniProt P49841). Put plainly: GSK3β kinase assay (Ser/Thr 09 peptide Z-lyte, FRET).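 Further: Coumarin/fluorescein emission ratio converted to percent phosphorylation against unphosphorylated (0%) and phosphorylated (100%) controls, 1 h compound incubation at room temperature, 11-point threefold dilutions from 10 µM, run in duplicate.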 Type of test: biochemical. As to conditions: method text calls the value IC50.
Chain of GSK3β kinase (P49841 whole entry): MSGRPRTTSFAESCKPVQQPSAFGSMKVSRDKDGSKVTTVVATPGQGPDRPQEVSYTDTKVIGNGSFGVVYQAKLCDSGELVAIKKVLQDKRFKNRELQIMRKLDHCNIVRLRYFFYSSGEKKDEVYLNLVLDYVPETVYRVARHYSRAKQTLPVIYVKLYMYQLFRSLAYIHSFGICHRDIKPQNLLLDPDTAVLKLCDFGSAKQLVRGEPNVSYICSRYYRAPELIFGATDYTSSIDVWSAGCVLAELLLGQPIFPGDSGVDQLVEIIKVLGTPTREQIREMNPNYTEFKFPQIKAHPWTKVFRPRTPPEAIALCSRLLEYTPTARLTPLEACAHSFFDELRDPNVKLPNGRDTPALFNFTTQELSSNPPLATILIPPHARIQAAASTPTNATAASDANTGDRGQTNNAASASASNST
The target in another test is DYRK1A kinase (Homo sapiens (Human), UniProt Q13627). Put plainly: DYRK1A kinase assay (Ser/Thr 18 peptide Z-lyte, FRET).
The subject of test [1] is LL29 cells (primary human fibroblasts derived from IPF patients), α-smooth muscle actin. Put plainly: Inhibition of fibrotic process: αSMA in TGF-β1-treated primary human fibroblasts from IPF patients (LL29 cells). Type of test: cell-based. As to conditions: Homo sapiens, Fibroblast; for EC50: 96 h, % αSMA-positive LL29 cells, TGF-β1 20 ng/mL, 4 days; for inhibition at 10 µM: read-out: percent inhibition at 10 μM. In a few lines: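 IPF-patient lung fibroblasts (LL29) were stimulated with TGF-β1 (20 ng/mL) in 1% FBS medium with compound (11-point 1:2 series, 0.1% DMSO) for 4 days at 37 °C. Fixed cells were immunostained for αSMA and imaged, excluding SYTOX-positive dead cells. The % αSMA-positive cells was normalized to TGF-β1/DMSO control wells.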

Test [2] concerns Tau phosphorylation at Ser396 (pSer396), SH-SY5Y cells. The experiment in a line: Tau phosphorylation at Ser396 (pSer396) in SH-SY5Y cells, ELISA/western blot.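 Further: cell lysates probed for reduced Tau pSer396 via ELISA (colorimetric) or western blot (chemiluminescence), both with one shared pSer396 antibody, EC50 for lowering phosphorylation.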 The test is classed as cell-based, human. As to conditions: Homo sapiens; SH-SY5Y cells, overnight (16-18 h); read-out: pSer396 Tau EC50. A general note: In an ELISA, binding on a coated surface is turned into a signal by an enzyme label.

In test [3] the test system is SW480 colon carcinoma cells. The experiment in a line: Cell viability assay (CellTiter-Glo) in SW480 cells.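 On all read-outs here: SW480 cells stably carrying an Sp5-luciferase TCF/LEF reporter, luminescent ATP signal as viability measure, DMSO-treated cells as control.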 As to conditions: Homo sapiens; for EC50: 96 h, cell viability, SW480 cells, four days, CellTiter-Glo. The test is classed as cell-based, human. A general note: Cellular ATP, detected with luciferase, serves as a proxy for viable cell number.
Experimental: Representative compounds were screened using the assay procedure to assess the effect on cell viability as described below.
SW480 colon carcinoma cells were transduced with a lentiviral vector expressing luciferase with a human Sp5 promoter consisting of a sequence of eight TCF/LEF binding sites. SW480 cells stably expressing the Sp5-Luc reporter gene and a hygromycin resistance gene were selected by treatment with 150 μg/mL of hygromycin for 7 days. These stably transduced SW480 cells were expanded in cell culture and used for all further screening activities. Each compound was dissolved in DMSO as a 10 mM stock and used to prepare compound source plates.
For the Cell Viability Assays, the cells were plated at 2,000 cells/well in 384-well plates with a DMEM medium containing 1% fetal bovine serum, and 1% Penicillin-Streptomycin and incubated for four days hours at 37° C. and 5% CO2. Eight replicates of DMSO-treated cells served as controls and cells treated with compound were performed in duplicate.
After incubation, 10 μL of CellTiter-Glo (Promega) was added to each well allowed to incubate for approximately 12 minutes.
Dose-response curves were generated and EC50 concentration values were calculated using non-linear regression curve fit in the GraphPad Prism (San Diego, Calif.) or Dotmatics' Studies Software (Bishops Stortford, UK).
The subject of the next test is IL-6. The experiment in a line: IL-6 inhibition in LPS-stimulated human peripheral blood mononuclear cells (HTRF). The test is classed as cell-based. As to conditions: Homo sapiens, PBMC; for EC50: IL-6, LPS-stimulated huPBMCs, HTRF; for inhibition at 10 µM: read-out: percent value in parentheses below EC50 >10. An outline of the steps:
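Fresh human PBMCs (5000 cells/well, 1% FBS RPMI) preincubated with compound (10-point 1:3 series from 10 μM, 0.25% DMSO) 2 h at 37 °C, then stimulated with 50 ng/mL E. coli LPS for 22 h. IL-6 by HTRF 665/620 ratio; DMSO-normalized, EC50 from 4-parameter fit.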

Test [4] relates to Wnt activity (Sp5-Luc reporter in SW480 colon carcinoma cells). Put plainly: Wnt activity screening assay (Sp5-Luc reporter gene assay). Type of test: cell-based, human. As to conditions: Homo sapiens; for EC50: Sp5-Luc reporter, SW480 cells, 36 to 48 hours; for inhibition at 10 µM: SW480, read-out: percent inhibition at 10 μM. In a few lines:
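SW480 cells stably carrying an Sp5 promoter (eight TCF/LEF sites)-firefly luciferase reporter were plated in DMEM with 1% FBS and treated with a 10-point, 1:3 dilution series from 10 μM (0.1% DMSO) for 36 to 48 h at 37° C. Luminescence was normalized to DMSO controls, and EC50 came from four-parameter nonlinear regression.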

[5] abbreviates: DYRK1A kinase, method text calls the value IC50.

As to `Cc1ncc(-c2ccc3cnc(NC(=O)N4CC[C@H](NC(C)C)[C@@H](F)C4)cc3c2)o1` [Compound 53, (3 S,4S)-3-Fluoro-4-(isopropylamino)-N-(6-(2-methyloxazol-5-yl)isoquinolin-3-yl)piperidine-1-carboxamide], the EC50 (in general, the concentration giving half of the maximal effect) at GSK3β kinase was 366 nM; at DYRK1A kinase (setting [5]), 38 nM; in test [1], 1580 nM; in test [2], 2300 nM; in test [3] it was 4510 nM; in the test with IL-6 it was 9360 nM. This molecule also showed an EC50 in test [4] of 2810 nM.

`[2H]C([2H])([2H])c1ccc(C(=O)Nc2cc3cc(-c4cnc(C)n4C)ccc3cn2)cc1` [Compound 161, N-(6-(1,2-Dimethyl-1H-imidazol-5-yl)isoquinolin-3-yl)-4-(methyl-d3) benzamide]: the EC50 was 5670 nM at GSK3β kinase; 10 nM at DYRK1A kinase; 3000 nM in test [1]; above 10000 nM in test [2]; 660 nM in test [3]; above 10000 nM in the test on IL-6. Moreover, in test [4], the midpoint of the response, the EC50, lay at 736 nM. Also, in the test with IL-6, the inhibition at 10 µM is 42.2%.

On to `Cc1nnc(-c2ccc3cnc(NC(=O)N4CCC(N)CC4)cc3c2)s1` [Compound 150, 4-Amino-N-(6-(5-methyl-1,3,4-thiadiazol-2-yl)isoquinolin-3-yl)piperidine-1-carboxamide], for which the EC50 was 23 nM on GSK3β kinase; 13 nM on DYRK1A kinase (setting [5]); above 10000 nM in test [1]; 272 nM in test [2]; 3920 nM in test [3]; above 10000 nM in the test on IL-6. The molecule further gave an EC50 in test [4] of 2190 nM. For the same molecule, the figures for the inhibition at 10 µM (in test [1]; in the test with IL-6) were 43.7% and 5.7%, respectively.

As for `Cc1nnc(-c2ccc3cnc(NC(=O)N4CC[C@H](N)[C@@H](F)C4)cc3c2)s1` [Compound 33, (3S,4S)-4-amino-3-fluoro-N-(6-(5-methyl-1,3,4-thiadiazol-2-yl)isoquinolin-3-yl)piperidine-1-carboxamide], the EC50 is 23 nM at GSK3β kinase; 9 nM on DYRK1A kinase (setting [5]); above 10000 nM in test [1]; 321 nM in test [2]; 4630 nM in test [3]; 9320 nM in the test on IL-6. In test [4], the midpoint of the response, the EC50, lay at 3500 nM. In addition, the inhibition at 10 µM in test [1] is 49.9%.

`[2H]C1([2H])OC([2H])([2H])C([2H])([2H])N(CC(=O)Nc2cc3cc(-c4cnc(C)s4)ccc3cn2)C1([2H])[2H]` [Compound 41, N-(6-(2-Methylthiazol-5-yl)isoquinolin-3-yl)-2-(morpholino-d8)acetamide]: the EC50 was 203 nM at GSK3β kinase; 27 nM on DYRK1A kinase; 1220 nM in test [1]; 869 nM in test [2]; above 10000 nM in test [3]; above 10000 nM with IL-6. This molecule registered an EC50 in test [4] above 10000 nM. Also, the inhibition at 10 µM in test [3] (SW480, read-out: percent inhibition at 10 μM) stood at 10.7%; in the test on IL-6, 9.4%; in test [4] it was 29.7%.

Take `[2H]c1c([2H])c(C(=O)Nc2cc3cc(-c4cncn4C)ccc3cn2)c([2H])c([2H])c1Cl` [Compound 83, 4-Chloro-N-(6-(1-methyl-1H-imidazol-5-yl)isoquinolin-3-yl)benzamide-2,3,5,6-d4]: the EC50 was 874 nM at GSK3β kinase; 2 nM at DYRK1A kinase; 483 nM in test [1]; above 10000 nM in test [2]; 305 nM in test [3]; 1130 nM with IL-6. This molecule had an EC50 in test [4] above 10000 nM. Besides, the inhibition at 10 µM in test [4] stood at 29.7%.

With `Cc1nc(-c2ccc3cnc(NC(=O)[C@H]4CC[C@H](N5CCN(C)CC5)CC4)cc3c2)co1` [Compound 12, trans-N-(6-(2-Methyloxazol-4-yl)isoquinolin-3-yl)-4-(4-methylpiperazin-1-yl)cyclohexane-1-carboxamide], the concentration for a half-maximal effect (EC50) worked out at 189 nM on GSK3β kinase; 16 nM on DYRK1A kinase (setting [5]); 102 nM in test [1]; 436 nM in test [2]; 713 nM in test [3]; 1120 nM in the test on IL-6. The same molecule came in with a 50% effective concentration (EC50) in test [4] of 943 nM.

For `Cn1cc(-c2ccc3cnc(NC(=O)N4CCOCC4)cc3c2)cn1` [Compound 64, N-(6-(1-Methyl-1H-pyrazol-4-yl)isoquinolin-3-yl)morpholine-4-carboxamide], the EC50 on GSK3β kinase amounted to 530 nM; at DYRK1A kinase (setting [5]), 8 nM; in test [1], 683 nM; in test [2] it was 2900 nM; in test [3], 3530 nM; with IL-6, 4630 nM. Also, in test [4], the EC50 turned out to be 434 nM.

On to `Cc1ncc(-c2ccc3cnc(NC(=O)C4CCN(C)CC4)cc3c2)o1` [Compound 47, 1-Methyl-N-(6-(2-methyloxazol-5-yl)isoquinolin-3-yl)piperidine-4-carboxamide], for which the EC50 on GSK3β kinase worked out at 65 nM; at DYRK1A kinase (setting [5]), 6 nM; in test [1], 262 nM; in test [2] it was 174 nM; in test [3] it was 751 nM; with IL-6, 945 nM. Further, in test [4], the EC50 was 917 nM.

As for `Cc1nnc(-c2ccc3cnc(NC(=O)N4CC[C@@H](NC(C)C)[C@H](F)C4)cc3c2)s1` [Compound 130, (3R,4R)-3-Fluoro-4-(isopropylamino)-N-(6-(5-methyl-1,3,4-thiadiazol-2-yl)isoquinolin-3-yl)piperidine-1-carboxamide], the EC50 on GSK3β kinase was 142 nM; at DYRK1A kinase (setting [5]), 37 nM; in test [1], 3300 nM; in test [2], 1500 nM; in test [3] it was 4210 nM; with IL-6, above 10000 nM. Further, a half-maximal effect in test [4] (EC50) was put at 4040 nM. Moreover, the inhibition at 10 µM in the test with IL-6 worked out at 12.2%.

For the molecule `[2H]c1c([2H])c(C(=O)Nc2cc3cc(-c4cnc(C)n4C)ccc3cn2)c([2H])c([2H])c1OC([2H])([2H])[2H]` [Compound 165, N-(6-(1,2-Dimethyl-1H-imidazol-5-yl)isoquinolin-3-yl)-4-(methoxy-d3) benzamide-2,3,5,6-d4], the EC50 is 3740 nM on GSK3β kinase; 6 nM at DYRK1A kinase; 998 nM in test [1]; above 10000 nM in test [2]; 752 nM in test [3]; 2850 nM in the test with IL-6. In test [4], this molecule gave an EC50 of 498 nM.

`Cc1nnc(-c2ccc3cnc(NC(=O)N4CCN(C)CC4)cc3c2)s1` [Compound 62, 4-Methyl-N-(6-(5-methyl-1,3,4-thiadiazol-2-yl)isoquinolin-3-yl)piperazine-1-carboxamide]: the EC50 was 68 nM on GSK3β kinase; 7 nM at DYRK1A kinase (setting [5]); 1230 nM in test [1]; 1200 nM in test [2]; 3640 nM in test [3]; above 10000 nM in the test on IL-6. This molecule returned an EC50 in test [4] of 2640 nM. Moreover, the inhibition at 10 µM in the test on IL-6 was determined as 8.5%.

`[2H]/C(C(=O)Nc1cc2cc(-c3cnc(C)n3C)ccc2cn1)=C(/[2H])c1c([2H])c([2H])c([2H])c([2H])c1[2H]` [Compound 91, (E)-N-(6-(1,2-Dimethyl-1H-imidazol-5-yl)isoquinolin-3-yl)-3-(phenyl-2,3,4,5,6-d5)acrylamide-2,3-d2]: the EC50 on GSK3β kinase is 454 nM; at DYRK1A kinase it was 5 nM; in test [1], 289 nM; in test [2] it was 68 nM; in test [3], 314 nM; with IL-6, 679 nM. This molecule also gave an EC50 in test [4] of 197 nM.
